Values quoted from earlier work in publication PMC2988205 (Medicinal Chemistry Research, 2009).

Test system: β3-AR
Conditions: read-out: β3 EC50; β3-AR partial agonist; ref Naylor et al., 1998

Compound: C[C@H](Cc1ccc(OCC(=O)O)cc1)NC[C@H](O)c1cccc(Cl)c1 [BRL-37344]
- EC50: 450 nM
